# System: Lentils
# Assay: Herbicidal effect on potted weeds, plant development score
# Assay type: in vivo
# Settings: post-emergence, soil application 1 mg/pot; scale 0 (dead plants) to 5 (healthy, as Control)
# Procedure: (§1) Weed seeds were sawn in 0.3-liter pots, containing medium-heavy clay-loam soil from organic fields (55% clay, 23% silt, 20% sand, 2% organic matter, pH 7.1). The experiment was conducted in a completely randomized design. Each treatment was replicated 3 times (3 pots). Each compound was typically tested on crops (Corn, Wheat, Soy, Cotton, Oat, Chickpea) and weeds (Amaranth, Chenopodium, Lentils, Sinapis, Silybum).
# (§2) The herbicides were applied at dose from 0 (control) to 5 mg/pot. The treatment was performed at the day of sawn (pre-emergence treatment). Then the pots were transferred to a mesh house 24 hours after herbicide application and were sprinkler irrigated to field capacity of the soil. Alternatively, the herbicides were applied on grown plants at stage 2-3 true leaves (post-emergence treatment).
# (§3) The plants were grown in the mesh house during the entire experiment. Plant development at 6, 12, 19, 26 and 32 days after application (DAA) were evaluated on a scale of 0 to 5, in which 0 represents dead plants and 5 represents healthy plants similar or not different from Control. In the context of the invention, the herbicidal effect was expressed as a score calculated as an average of assessments of plants vigor, height, and leaf color.
row,Compound,"Average Herbicidal Effect, Lentils"
1,"2-(2,5-dichloro-1,3-thiazol-4-yl)acetic acid [compound 5637]",1.7
2,"O=C(O)Cc1cc(Cl)sc1Cl [compound 586, 2-(2,5-dichlorothiophen-3-yl) acetic acid]",3.2
3,"O=C([O-])C(F)(F)c1csc(Cl)n1.[Na+] [compound 5666, sodium(2-chloro-1,3-thiazol-4-yl)(difluoro)acetate]",0.0
4,"(2,5-dichlorothiophen-3-yl)(difluoro)acetic acid [compound 5640]",2.1

# Same assay, conditions: pre-emergence, soil application 1 mg/pot; scale 0 (dead plants) to 5 (healthy, as Control)
row,Compound,"Average Herbicidal Effect, Lentils"
1,"2-(2,5-dichloro-1,3-thiazol-4-yl)acetic acid [compound 5637]",0.0
2,"O=C(O)Cc1cc(Cl)sc1Cl [compound 586, 2-(2,5-dichlorothiophen-3-yl) acetic acid]",0.5
3,"O=C([O-])C(F)(F)c1csc(Cl)n1.[Na+] [compound 5666, sodium(2-chloro-1,3-thiazol-4-yl)(difluoro)acetate]",0.0
4,"(2,5-dichlorothiophen-3-yl)(difluoro)acetic acid [compound 5640]",0.0

# System: Sinapis
# Assay: as above
# Assay type: in vivo
# Settings: post-emergence, soil application 1 mg/pot; scale 0 (dead plants) to 5 (healthy, as Control)
# Procedure: as §1, §2, §3
row,Compound,"Average Herbicidal Effect, Sinapis"
1,"2-(2,5-dichloro-1,3-thiazol-4-yl)acetic acid [compound 5637]",0.0
2,"O=C(O)Cc1cc(Cl)sc1Cl [compound 586, 2-(2,5-dichlorothiophen-3-yl) acetic acid]",0.0
3,"O=C([O-])C(F)(F)c1csc(Cl)n1.[Na+] [compound 5666, sodium(2-chloro-1,3-thiazol-4-yl)(difluoro)acetate]",0.0
4,"(2,5-dichlorothiophen-3-yl)(difluoro)acetic acid [compound 5640]",0.0

# Same assay, conditions: pre-emergence, soil application 1 mg/pot; scale 0 (dead plants) to 5 (healthy, as Control)
row,Compound,"Average Herbicidal Effect, Sinapis"
1,"2-(2,5-dichloro-1,3-thiazol-4-yl)acetic acid [compound 5637]",3.5
2,"O=C(O)Cc1cc(Cl)sc1Cl [compound 586, 2-(2,5-dichlorothiophen-3-yl) acetic acid]",5.0
3,"O=C([O-])C(F)(F)c1csc(Cl)n1.[Na+] [compound 5666, sodium(2-chloro-1,3-thiazol-4-yl)(difluoro)acetate]",1.0

# System: Amaranth
# Assay: as above
# Assay type: in vivo
# Settings: post-emergence, soil application 1 mg/pot; scale 0 (dead plants) to 5 (healthy, as Control)
# Procedure: as §1, §2, §3
row,Compound,"Average Herbicidal Effect, Amaranth"
1,"2-(2,5-dichloro-1,3-thiazol-4-yl)acetic acid [compound 5637]",3.3
2,"O=C(O)Cc1cc(Cl)sc1Cl [compound 586, 2-(2,5-dichlorothiophen-3-yl) acetic acid]",3.3
3,"O=C([O-])C(F)(F)c1csc(Cl)n1.[Na+] [compound 5666, sodium(2-chloro-1,3-thiazol-4-yl)(difluoro)acetate]",1.2
4,"(2,5-dichlorothiophen-3-yl)(difluoro)acetic acid [compound 5640]",2.0

# Same assay, conditions: pre-emergence, soil application 1 mg/pot; scale 0 (dead plants) to 5 (healthy, as Control)
row,Compound,"Average Herbicidal Effect, Amaranth"
1,"2-(2,5-dichloro-1,3-thiazol-4-yl)acetic acid [compound 5637]",1.5
2,"O=C(O)Cc1cc(Cl)sc1Cl [compound 586, 2-(2,5-dichlorothiophen-3-yl) acetic acid]",2.0
3,"O=C([O-])C(F)(F)c1csc(Cl)n1.[Na+] [compound 5666, sodium(2-chloro-1,3-thiazol-4-yl)(difluoro)acetate]",1.0
4,"(2,5-dichlorothiophen-3-yl)(difluoro)acetic acid [compound 5640]",4.0

# System: Silybum
# Assay: as above
# Assay type: in vivo
# Settings: post-emergence, soil application 1 mg/pot; scale 0 (dead plants) to 5 (healthy, as Control)
# Procedure: as §1, §2, §3
row,Compound,"Average Herbicidal Effect, Silybum"
1,"2-(2,5-dichloro-1,3-thiazol-4-yl)acetic acid [compound 5637]",1.0
2,"O=C(O)Cc1cc(Cl)sc1Cl [compound 586, 2-(2,5-dichlorothiophen-3-yl) acetic acid]",3.7
3,"O=C([O-])C(F)(F)c1csc(Cl)n1.[Na+] [compound 5666, sodium(2-chloro-1,3-thiazol-4-yl)(difluoro)acetate]",0.0
4,"(2,5-dichlorothiophen-3-yl)(difluoro)acetic acid [compound 5640]",2.0

# Same assay, conditions: pre-emergence, soil application 1 mg/pot; scale 0 (dead plants) to 5 (healthy, as Control)
row,Compound,"Average Herbicidal Effect, Silybum"
1,"2-(2,5-dichloro-1,3-thiazol-4-yl)acetic acid [compound 5637]",0.5
2,"O=C(O)Cc1cc(Cl)sc1Cl [compound 586, 2-(2,5-dichlorothiophen-3-yl) acetic acid]",1.0
3,"O=C([O-])C(F)(F)c1csc(Cl)n1.[Na+] [compound 5666, sodium(2-chloro-1,3-thiazol-4-yl)(difluoro)acetate]",0.5
4,"(2,5-dichlorothiophen-3-yl)(difluoro)acetic acid [compound 5640]",2.5

# System: Chenopodium
# Assay: as above
# Assay type: in vivo
# Settings: post-emergence, soil application 1 mg/pot; scale 0 (dead plants) to 5 (healthy, as Control)
# Procedure: as §1, §2, §3
row,Compound,"Average Herbicidal Effect, Chenopodium"
1,"2-(2,5-dichloro-1,3-thiazol-4-yl)acetic acid [compound 5637]",2.2
2,"O=C([O-])C(F)(F)c1csc(Cl)n1.[Na+] [compound 5666, sodium(2-chloro-1,3-thiazol-4-yl)(difluoro)acetate]",1.5

# Same assay, conditions: pre-emergence, soil application 1 mg/pot; scale 0 (dead plants) to 5 (healthy, as Control)
row,Compound,"Average Herbicidal Effect, Chenopodium"
1,"2-(2,5-dichloro-1,3-thiazol-4-yl)acetic acid [compound 5637]",1.5
2,"O=C(O)Cc1cc(Cl)sc1Cl [compound 586, 2-(2,5-dichlorothiophen-3-yl) acetic acid]",1.5
3,"O=C([O-])C(F)(F)c1csc(Cl)n1.[Na+] [compound 5666, sodium(2-chloro-1,3-thiazol-4-yl)(difluoro)acetate]",0.0
4,"(2,5-dichlorothiophen-3-yl)(difluoro)acetic acid [compound 5640]",5.0

# System: Seeds of Lettuce R. (Super-Jericho)
# Assay: Filter paper bioassay with lettuce seeds: germination, Fully Effective Concentration (FEC)
# Assay type: in vivo
# Settings: lowest concentration mostly preventing lettuce seed germination, assessed after 6 days
# In short: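 Ten lettuce seeds per Petri dish on filter paper with 2.0 ml aqueous test solution, 0 to 1 mmol/l, kept 48 hours dark then 4 days at 6/18 dark/light. Radicle and shoot assessed visually at day 6; FEC is the lowest concentration mostly preventing germination.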
row,Compound,FEC (Fully Effective Concentration) [mM]
1,"2-(2,5-dichloro-1,3-thiazol-4-yl)acetic acid [compound 5637]",0.050
2,"O=C(O)Cc1cc(Cl)sc1Cl [compound 586, 2-(2,5-dichlorothiophen-3-yl) acetic acid]",0.050
3,"O=C([O-])C(F)(F)c1csc(Cl)n1.[Na+] [compound 5666, sodium(2-chloro-1,3-thiazol-4-yl)(difluoro)acetate]",0.010
4,"(2,5-dichlorothiophen-3-yl)(difluoro)acetic acid [compound 5640]",0.100

# System: Seeds of Lettuce R. (Super-Jericho)
# Assay: Filter paper bioassay with lettuce seeds: germination and early plant development, Minimal Effective Concentration (MEC)
# Assay type: in vivo
# Settings: lettuce seeds on filter paper, 0 to 1 mmol/l, visually assessed after 6 days
# In short: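 Non-sterilized Super-Jericho lettuce seeds, 10 per dish, on filter paper wetted with aqueous test solution at 0–1 mmol/l. Kept 48 h dark, then 4 days at 6/18 dark/light. MEC is the lowest concentration causing no germination or radicle/shoot malformation by visual scoring at day 6; at least two repeats.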
row,Compound,"Score (activity score of Minimal Effective Concentration, MEC)"
1,"2-(2,5-dichloro-1,3-thiazol-4-yl)acetic acid [compound 5637]",Strong (0.01 mM)
2,"O=C(O)Cc1cc(Cl)sc1Cl [compound 586, 2-(2,5-dichlorothiophen-3-yl) acetic acid]",strong
3,"O=C([O-])C(F)(F)c1csc(Cl)n1.[Na+] [compound 5666, sodium(2-chloro-1,3-thiazol-4-yl)(difluoro)acetate]",very strong
4,"(2,5-dichlorothiophen-3-yl)(difluoro)acetic acid [compound 5640]",Strong (0.01 mM)

# System: Romaine lettuce (Lactuca sativa L.) plants
# Assay: Comparison of NAA and DNAA: growth inhibition of potted Romaine lettuce plants
# Assay type: in vivo
# Settings: foliar application, 0.05 mg/pot, two weeks after treatment
# Procedure: The tests were performed on Romaine lettuce (Lactuca sativa L.) plants at the stage 2 to 3 leaves. The plants were grown in mini-pots packed with soil, dimensions 2×2×5 cm, one plant per mini-pot. Test compounds were dissolved in 0.1% aqueous solution water solution of Silwet adjuvant. The test material where applied in rate 0 (Control), 0.01, 0.05, and 0.5 mg/pot. The test compounds were applied on soil or foliar with airbrush (0.1 ml per pot). Each concentration was tested on 20 plants. Two weeks after the treatment the herbicidal effects of the respective test material were visually evaluated (aboveground part and roots. Then the aboveground part of the plants was neatly cut and weighed (wet weight) to assess the growth inhibition caused by the test compound. The growth inhibition (GI) was calculated as following: […]
# Where Mt and Mc are median wet weight of treated and control plants, respectively.
row,Compound,"Herbicidal effect, growth application (%)"
1,"(2,5-dichlorothiophen-3-yl)(difluoro)acetic acid [compound 5640]",100

# Same assay, conditions: foliar application, 0.50 mg/pot, two weeks after treatment
row,Compound,"Herbicidal effect, growth application (%)"
1,"(2,5-dichlorothiophen-3-yl)(difluoro)acetic acid [compound 5640]",100

# Same assay, conditions: soil application, 0.01 mg/pot, two weeks after treatment
row,Compound,"Herbicidal effect, growth application (%)"
1,"(2,5-dichlorothiophen-3-yl)(difluoro)acetic acid [compound 5640]",5

# Same assay, conditions: soil application, 0.05 mg/pot, two weeks after treatment
row,Compound,"Herbicidal effect, growth application (%)"
1,"(2,5-dichlorothiophen-3-yl)(difluoro)acetic acid [compound 5640]",100

# Same assay, conditions: soil application, 0.50 mg/pot, two weeks after treatment
row,Compound,"Herbicidal effect, growth application (%)"
1,"(2,5-dichlorothiophen-3-yl)(difluoro)acetic acid [compound 5640]",100

# System: Romaine lettuce (Lactuca sativa L.) plants
# Assay: Post-emergence herbicidal activity on potted Romaine lettuce plants (soil or foliar application)
# Assay type: in vivo
# Settings: foliar application, lettuce at 2 to 3 leaves, two weeks after treatment
# In short: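 Potted lettuce at the 2-3 leaf stage received compound in 0.1% aqueous Silwet, up to 0.0001%, applied to soil (1 ml/pot) or sprayed on foliage (0.1 ml/pot), 20 plants per concentration. Visual scoring and aboveground wet weight after two weeks; growth inhibition from median weights versus control.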
row,Compound,Score (test material causing more than 85% of Growth Inhibition or irreversible plant damage)
1,"2-(2,5-dichloro-1,3-thiazol-4-yl)acetic acid [compound 5637]",moderate (0.5)
2,"O=C(O)Cc1cc(Cl)sc1Cl [compound 586, 2-(2,5-dichlorothiophen-3-yl) acetic acid]",moderate (0.5)
3,"O=C([O-])C(F)(F)c1csc(Cl)n1.[Na+] [compound 5666, sodium(2-chloro-1,3-thiazol-4-yl)(difluoro)acetate]",strong (0.01 to 0.05)
4,"(2,5-dichlorothiophen-3-yl)(difluoro)acetic acid [compound 5640]",strong (0.01 to 0.05)

# Same assay, conditions: soil application, lettuce at 2 to 3 leaves, two weeks after treatment
row,Compound,Score (test material causing more than 85% of Growth Inhibition or irreversible plant damage)
1,"2-(2,5-dichloro-1,3-thiazol-4-yl)acetic acid [compound 5637]",strong (0.01 to 0.05)
2,"O=C(O)Cc1cc(Cl)sc1Cl [compound 586, 2-(2,5-dichlorothiophen-3-yl) acetic acid]",moderate (0.5)
3,"O=C([O-])C(F)(F)c1csc(Cl)n1.[Na+] [compound 5666, sodium(2-chloro-1,3-thiazol-4-yl)(difluoro)acetate]",strong (0.01 to 0.05)
4,"(2,5-dichlorothiophen-3-yl)(difluoro)acetic acid [compound 5640]",strong (0.01 to 0.05)
